Target: Keap1 (Homo sapiens, UniProt Q14145)
Assay: Fluorescence anisotropy assay
Type: binding
Settings: for Kd: Keap1-Nrf2 binding affinity, fluorescence anisotropy assay, duplicated experiment, average; for activity in Keap1-Nrf2 fluorescence anisotropy assay: at 10 μM

Chain of Keap1 (Q14145 whole entry): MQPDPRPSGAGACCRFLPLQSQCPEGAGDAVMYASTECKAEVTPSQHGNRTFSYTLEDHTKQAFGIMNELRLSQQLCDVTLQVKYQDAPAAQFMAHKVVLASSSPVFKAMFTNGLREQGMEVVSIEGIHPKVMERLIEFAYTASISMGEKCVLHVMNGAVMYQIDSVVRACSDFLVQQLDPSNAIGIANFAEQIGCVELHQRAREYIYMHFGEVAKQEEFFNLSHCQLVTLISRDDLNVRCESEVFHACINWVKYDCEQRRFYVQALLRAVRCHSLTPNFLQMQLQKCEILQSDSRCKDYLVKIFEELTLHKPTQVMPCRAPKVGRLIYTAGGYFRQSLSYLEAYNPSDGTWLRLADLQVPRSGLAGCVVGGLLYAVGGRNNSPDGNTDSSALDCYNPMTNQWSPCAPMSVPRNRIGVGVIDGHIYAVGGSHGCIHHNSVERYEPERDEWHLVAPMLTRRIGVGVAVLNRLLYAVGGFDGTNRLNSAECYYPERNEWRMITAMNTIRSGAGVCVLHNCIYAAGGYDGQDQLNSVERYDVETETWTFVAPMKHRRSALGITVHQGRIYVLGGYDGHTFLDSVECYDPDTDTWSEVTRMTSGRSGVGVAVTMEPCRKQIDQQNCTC

Compound	Kd	activity in Keap1-Nrf2 fluorescence anisotropy assay
COc1ccc(S(=O)(=O)N(CC(N)=O)c2ccc(N(CC(N)=O)S(=O)(=O)c3cccc4ccccc34)c3ccccc23)cc1 [Compound A1, 2-(N-(4-((N-(2-amino-2-oxoethyl)-4-methoxyphenyl)sulfonamido)naphthalen-1-yl)naphthalene-1-sulfonamido)acetamide]	> 10000 nM	did not show apparent activity
COc1ccc(S(=O)(=O)N(CC(N)=O)c2ccc(N(CC(N)=O)S(=O)(=O)c3ccc4ccccc4c3)c3ccccc23)cc1 [Compound A2, 2-(N-(4-((N-(2-amino-2-oxoethyl)-4-methoxyphenyl)sulfonamido)naphthalen-1-yl)naphthalene-2-sulfonamido)acetamide]	1300 nM	–
COc1ccc(S(=O)(=O)N(CC(N)=O)c2ccc(N(CC(N)=O)S(=O)(=O)c3ccc(-c4ccccc4)cc3)c3ccccc23)cc1 [Compound A3, 2-(N-(4-((N-(2-amino-2-oxoethyl)-4-methoxyphenyl)sulfonamido)naphthalen-1-yl)-[1,1'-biphenyl]-4-sulfonamido)acetamide]	> 10000 nM	did not show apparent activity
COc1ccc(S(=O)(=O)N(CC(N)=O)c2ccc(N(CC(N)=O)S(=O)(=O)c3cccs3)c3ccccc23)cc1 [Compound A4, 2-(N-(4-((N-(2-amino-2-oxoethyl)-4-methoxyphenyl)sulfonamido)naphthalen-1-yl)thiophene-2-sulfonamido)acetamide]	1110 nM	–
COc1ccc(S(=O)(=O)N(CC(N)=O)c2ccc(N(CC(N)=O)S(=O)(=O)c3ccc(Cl)nc3)c3ccccc23)cc1 [Compound A5, 2-((N-(4-((N-(2-amino-2-oxoethyl)-4-methoxyphenyl)sulfonamido)naphthalen-1-yl)-6-chloropyridine)-3-sulfonamido)acetamide]	> 10000 nM	did not show apparent activity
COc1ccc(S(=O)(=O)N(CC(N)=O)c2ccc(N(CC(N)=O)S(=O)(=O)N3CCOCC3)c3ccccc23)cc1 [Compound A6, 2-(N-(4-((N-(2-amino-2-oxoethyl)-4-methoxyphenyl)sulfonamido)naphthalen-1-yl)morpholine-4-sulfonamido)acetamide]	2070 nM	–
COc1ccc(S(=O)(=O)N(CC(N)=O)c2ccc(N(CC(N)=O)S(=O)(=O)c3sc(N(CC(N)=O)C(C)=O)nc3C)c3ccccc23)cc1 [Compound A7, N-(2-amino-2-oxoethyl)-N-(5-(N-(2-amino-2-oxoethyl)-N-(4-((N-(2-amino-2-oxoethyl)-4-methoxy-phenyl)sulfonamido)naphthalen-1-yl)sulfamoyl)-4-methylthiazol-2-yl)acetamide]	1430 nM	–
COc1ccc(S(=O)(=O)N(CC(N)=O)c2ccc(N(CC(N)=O)S(=O)(=O)c3cn(C)cn3)c3ccccc23)cc1 [Compound A8, 2-((N-(4-((N-(2-amino-2-oxoethyl)-1-methyl-1H-imidazole)-4-sulfonamido)naphthalen-1-yl)-4-methoxyphenyl)sulfonamido)acetamide]	1150 nM	–

The remaining lines, values ahead:

Kd	activity in Keap1-Nrf2 fluorescence anisotropy assay	Compound
1140 nM	–	COc1ccc(S(=O)(=O)N(CC(N)=O)c2ccc(N(CC(N)=O)S(=O)(=O)c3cnn(C)c3)c3ccccc23)cc1 [Compound A9, 2-((N-(4-((N-(2-amino-2-oxoethyl)-1-methyl-1H-pyrazole)-4-sulfonamido)naphthalen-1-yl)-4-methoxyphenyl)sulfonamido)acetamide]
3270 nM	–	COc1ccc(S(=O)(=O)N(CC(N)=O)c2ccc(N(CC(N)=O)S(=O)(=O)c3c(C)c(C)c4c(c3C)CC(C)(C)O4)c3ccccc23)cc1 [Compound A10, 2-((N-(4-((N-(2-amino-2-oxoethyl)-2,2,4,6,7-pentamethyl-2,3-dihydrobenzofuran)-5-sulfonamido)naphthalen-1-yl)-4-methoxyphenyl)sulfonamido)acetamide]
1280 nM	–	COc1ccc(S(=O)(=O)N(CC(N)=O)c2ccc(N(CC(N)=O)S(=O)(=O)c3ccc4c(c3)CCO4)c3ccccc23)cc1 [Compound A11, 2-((N-(4-((N-(2-amino-2-oxoethyl)-2,3-dihydrobenzofuran)-5-sulfonamido)naphthalen-1-yl)-4-methoxyphenyl)sulfonamido)acetamide]
> 10000 nM	did not show apparent activity	COc1ccc(S(=O)(=O)N(CC(N)=O)c2ccc(N(CC(N)=O)S(=O)(=O)c3c(C)noc3C)c3ccccc23)cc1 [Compound A12, 2-((N-(4-((N-(2-amino-2-oxoethyl)-3,5-dimethylisoxazole)-4-sulfonamido)naphthalen-1-yl)-4-methoxyphenyl)sulfonamido)acetamide]
> 10000 nM	did not show apparent activity	COc1ccc(S(=O)(=O)N(CC(N)=O)c2ccc(N(CC(N)=O)S(=O)(=O)c3sc4ccc(Cl)cc4c3C)c3ccccc23)cc1 [Compound A13, 2-((N-(4-((N-(2-amino-2-oxoethyl)-4-methoxyphenyl)sulfonamido)naphthalen-1-yl)-5-chloro-3-methylbenzo[b]thiophene)-2-sulfonamido)acetamide]

Reference: publication PMC10331597 (Redox Biology, 2023)
